Data set [1] is described as follows: Initial mouse tolerability experiment with beryllium and chelator. Type of data set: in vivo, mice. The conditions noted are these: beryllium and chelator administration, 48-hour experiment. As to the method:
LLNL-IBC#2004-029. Two sets of animal experiments were performed.

The nature of data set [2]: Site-300 beryllium oxide debris particle chelation (ICP-MS of filtrates). The conditions noted are these: pH 7, equilibrated 3 days. Type of data set: physicochemical. As to the method:
The aims of this investigation were not limited to the study of beryllium in biological fluids and systems. A good chelator in the body is likely a good chelator in the environment. […] Particles were obtained from the Contained Firing Facility (CFF) at LLNL Site 300. Approximately 500 mg of beryllium oxide debris was weighed in a tared polyethylene vials and varying concentrations of APMDP chelator (pH adjusted to pH 7) were added to each vial. The vials were left to stand for 3 days, with manual shaking performed for 2 minutes each, twice a day. Samples were then filtered through a 0.2 um membrane and filtrates were analyzed by ICP-MS.

The conditions of data set [3]: in vivo; cited from earlier work.
For data set [4] the following is noted: cited from earlier work.

For `NC(c1ccccc1)(P(=O)(O)O)P(=O)(O)O` [APMDP, α-aminobenzyl-α,α,-diphosphoric acid], in data set [1], the “adverse effect on mice” value is listed as “did not adversely affect the mice”. In addition, in data set [2], the “dissolution of insoluble BeO fines” value is given as “can be dissolved”.
In the case of `NCc1ccccc1` [Benzylamine], the LD-50 in data set [3] was 128 mg/kg.
In the case of `CC(c1ccccc1)N(C)C` (centres unmarked) [N,N-dimethyl-a-methylbenzylamine], in data set [3], the LD-50 is 420 mg/kg.
Take `CC(N)c1ccccc1` (centres unmarked) [a-methylbenzylamine]: the LD-50 in data set [3] is 940 mg/kg.
Turning to `O=P(O)(O)c1ccccc1` [phenylphosphonic acid], the water solubility entry in data set [4] is given as “water soluble”. The toxic at in data set [3] is 110 mg/kg.
On to `O=S(=O)(O)c1cc(O)c(O)c(S(=O)(=O)O)c1` [tiron], for which the “adverse effect on mice” value in data set [1] is recorded as “did not adversely affect the mice”.

The record behind these values is US20070254827A1, “Alpha-aminobenzyl-alpha,alpha,-diphosphoric acid selective chelation of beryllium” (priority 2006, published 2007).
